Activity calls are given as the source filed them. The rule behind the calls is not given here.
System: A-375
Assay: Cell cycle arrest in human A375 cells assessed as accumulation at pre-G0 phase up to 500 nM preincubated for 24 hrs followed by exposure to light with fluence rate of 7.5 mW/cm2 at 10 J and measured after 24 hrs by propidium iodide/RNase-staining based flow cytometric analysis
Assay type: functional
Details: not given

Compound | Activity
OCc1nn2c(c1CO)CC1c3nc(cc4ccc([nH]4)c(-c4ccccc4)c4nc(cc5ccc([nH]5)c3-c3ccccc3)C=C4)C1C2 (centres undefined) | Active
COC(=O)c1nn2c(c1C(=O)OC)CC1c3cc4ccc([nH]4)c(-c4ccccc4)c4nc(cc5ccc([nH]5)c(-c5ccccc5)c(n3)C1C2)C=C4 (centres undefined) | Active

System: not listed separately
Assay: Dark toxicity against human HFF1 cells at 1 to 10 uM after 24 hrs by MTT assay
Assay type: cell-based
Details: hff-1, 24 h

Compound | Activity
COC(=O)c1nn2c(c1C(=O)OC)CC1c3cc4ccc([nH]4)c(-c4ccccc4)c4nc(cc5ccc([nH]5)c(-c5ccccc5)c(n3)C1C2)C=C4 (centres undefined) | Non-Toxic

System: A-375
Assay: Photocytotoxicity against human A375 cells preincubated for 24 hrs followed by exposure to light with fluence rate of 7.5 mW/cm2 until 10 J measured after 24 hrs by MTT assay
Assay type: functional, cell-based
Details: not given

Compound | IC50
OCc1nn2c(c1CO)CC1c3nc(cc4ccc([nH]4)c(-c4ccccc4)c4nc(cc5ccc([nH]5)c3-c3ccccc3)C=C4)C1C2 (centres undefined) | 2.9 nM
COC(=O)c1nn2c(c1C(=O)OC)CC1c3cc4ccc([nH]4)c(-c4ccccc4)c4nc(cc5ccc([nH]5)c(-c5ccccc5)c(n3)C1C2)C=C4 (centres undefined) | 14.3 nM

System: not listed separately
Assay: Drug uptake in human A375 cells preincubated for 24 hrs followed by exposure to light with fluence rate of 7.5 mW/cm2 at 10 J measured after 24 hrs by fluorescence spectroscopic analysis
Assay type: ADME, cell-based
Details: a-375, 24 h

Compound | Drug uptake
OCc1nn2c(c1CO)CC1c3nc(cc4ccc([nH]4)c(-c4ccccc4)c4nc(cc5ccc([nH]5)c3-c3ccccc3)C=C4)C1C2 (centres undefined) | Dose-dependent effect
COC(=O)c1nn2c(c1C(=O)OC)CC1c3cc4ccc([nH]4)c(-c4ccccc4)c4nc(cc5ccc([nH]5)c(-c5ccccc5)c(n3)C1C2)C=C4 (centres undefined) | Dose-dependent effect

System: A-375
Assay: Photocytotoxicity against human A375 cells at 5 to 50 nM preincubated for 24 hrs followed by exposure to light with fluence rate of 7.5 mW/cm2 until 20J and measured after 24 hrs by MTT assay
Assay type: functional, cell-based
Details: not given

Compound | Activity
OCc1nn2c(c1CO)CC1c3nc(cc4ccc([nH]4)c(-c4ccccc4)c4nc(cc5ccc([nH]5)c3-c3ccccc3)C=C4)C1C2 (centres undefined) | Active
COC(=O)c1nn2c(c1C(=O)OC)CC1c3cc4ccc([nH]4)c(-c4ccccc4)c4nc(cc5ccc([nH]5)c(-c5ccccc5)c(n3)C1C2)C=C4 (centres undefined) | Active

System: A-375
Assay: Increase in expression of reduced glutathione in human A375 cells up to 500 nM preincubated for 24 hrs followed by exposure to light with fluence rate of 7.5 mW/cm2 at 10 J and measured after 24 hrs by mercury orange staining-based fluorescence analysis
Assay type: functional, cell-based
Details: not given

Compound | Activity
OCc1nn2c(c1CO)CC1c3nc(cc4ccc([nH]4)c(-c4ccccc4)c4nc(cc5ccc([nH]5)c3-c3ccccc3)C=C4)C1C2 (centres undefined) | inactive
COC(=O)c1nn2c(c1C(=O)OC)CC1c3cc4ccc([nH]4)c(-c4ccccc4)c4nc(cc5ccc([nH]5)c(-c5ccccc5)c(n3)C1C2)C=C4 (centres undefined) | inactive

System: A-375
Assay: Photocytotoxicity against human A375 cells assessed as decrease in cell viability by measuring protein content at >= 50 nM preincubated for 24 hrs followed by exposure to light with fluence rate of 7.5 mW/cm2 at 10 J and measured after 24 hrs by sulforhodamine B assay
Assay type: functional, cell-based
Details: not given

Compound | Activity
OCc1nn2c(c1CO)CC1c3nc(cc4ccc([nH]4)c(-c4ccccc4)c4nc(cc5ccc([nH]5)c3-c3ccccc3)C=C4)C1C2 (centres undefined) | Active
COC(=O)c1nn2c(c1C(=O)OC)CC1c3cc4ccc([nH]4)c(-c4ccccc4)c4nc(cc5ccc([nH]5)c(-c5ccccc5)c(n3)C1C2)C=C4 (centres undefined) | Active

System: A-375
Assay: Induction of apoptosis in human A375 cells at 50 nM preincubated for 24 hrs followed by exposure to light with fluence rate of 7.5 mW/cm2 at 10 J and measured after 24 hrs by Annexin-V/propidium iodide staining-based FACS analysis
Assay type: functional, cell-based
Details: not given

Compound | Activity
OCc1nn2c(c1CO)CC1c3nc(cc4ccc([nH]4)c(-c4ccccc4)c4nc(cc5ccc([nH]5)c3-c3ccccc3)C=C4)C1C2 (centres undefined) | Active
COC(=O)c1nn2c(c1C(=O)OC)CC1c3cc4ccc([nH]4)c(-c4ccccc4)c4nc(cc5ccc([nH]5)c(-c5ccccc5)c(n3)C1C2)C=C4 (centres undefined) | Active

System: not listed separately
Assay: Dark toxicity against human A375 cells at 5 to 10 uM after 24 hrs by MTT assay
Assay type: cell-based
Details: a-375, 24 h

Compound | Activity
OCc1nn2c(c1CO)CC1c3nc(cc4ccc([nH]4)c(-c4ccccc4)c4nc(cc5ccc([nH]5)c3-c3ccccc3)C=C4)C1C2 (centres undefined) | Toxic

System: A-375
Assay: Induction of p53 expression in human A375 cells at 50 nM preincubated for 24 hrs followed by exposure to light with fluence rate of 7.5 mW/cm2 at 10 J and measured after 24 hrs by Western blot analysis
Assay type: functional, cell-based
Details: not given

Compound | Activity
OCc1nn2c(c1CO)CC1c3nc(cc4ccc([nH]4)c(-c4ccccc4)c4nc(cc5ccc([nH]5)c3-c3ccccc3)C=C4)C1C2 (centres undefined) | Active
COC(=O)c1nn2c(c1C(=O)OC)CC1c3cc4ccc([nH]4)c(-c4ccccc4)c4nc(cc5ccc([nH]5)c(-c5ccccc5)c(n3)C1C2)C=C4 (centres undefined) | Active

System: not listed separately
Assay: Dark toxicity against human A375 cells at 1 to 10 uM after 24 hrs by MTT assay
Assay type: cell-based
Details: a-375, 24 h

Compound | Activity
COC(=O)c1nn2c(c1C(=O)OC)CC1c3cc4ccc([nH]4)c(-c4ccccc4)c4nc(cc5ccc([nH]5)c(-c5ccccc5)c(n3)C1C2)C=C4 (centres undefined) | Non-Toxic

System: A-375
Assay: Disruption of mitochondrial membrane potential in human A375 cells at 50 nM preincubated for 24 hrs followed by exposure to light with fluence rate of 7.5 mW/cm2 at 10 J and measured after 24 hrs by JC-1 staining-based assay
Assay type: functional, cell-based
Details: not given

Compound | Activity
OCc1nn2c(c1CO)CC1c3nc(cc4ccc([nH]4)c(-c4ccccc4)c4nc(cc5ccc([nH]5)c3-c3ccccc3)C=C4)C1C2 (centres undefined) | Active
COC(=O)c1nn2c(c1C(=O)OC)CC1c3cc4ccc([nH]4)c(-c4ccccc4)c4nc(cc5ccc([nH]5)c(-c5ccccc5)c(n3)C1C2)C=C4 (centres undefined) | Active

System: not listed separately
Assay: Dark toxicity against human HFF1 cells at 5 to 10 uM after 24 hrs by MTT assay
Assay type: cell-based
Details: hff-1, 24 h

Compound | Activity
OCc1nn2c(c1CO)CC1c3nc(cc4ccc([nH]4)c(-c4ccccc4)c4nc(cc5ccc([nH]5)c3-c3ccccc3)C=C4)C1C2 (centres undefined) | Toxic

System: A-375
Assay: Photocytotoxicity against human A375 cells at 5 to 500 nM preincubated for 24 hrs followed by exposure to light with fluence rate of 7.5 mW/cm2 until 5 to 10 J and measured after 24 hrs by MTT assay
Assay type: functional, cell-based
Details: not given

Compound | Activity
OCc1nn2c(c1CO)CC1c3nc(cc4ccc([nH]4)c(-c4ccccc4)c4nc(cc5ccc([nH]5)c3-c3ccccc3)C=C4)C1C2 (centres undefined) | Active
COC(=O)c1nn2c(c1C(=O)OC)CC1c3cc4ccc([nH]4)c(-c4ccccc4)c4nc(cc5ccc([nH]5)c(-c5ccccc5)c(n3)C1C2)C=C4 (centres undefined) | Active

System: A-375
Assay: Decrease in intracellular superoxide anion generation in human A375 cells at 500 nM preincubated for 24 hrs followed by exposure to light with fluence rate of 7.5 mW/cm2 at 10 J and measured after 24 hrs by dihydroethidium staining-based fluorescence analysis
Assay type: functional, cell-based
Details: not given

Compound | Activity
OCc1nn2c(c1CO)CC1c3nc(cc4ccc([nH]4)c(-c4ccccc4)c4nc(cc5ccc([nH]5)c3-c3ccccc3)C=C4)C1C2 (centres undefined) | Active
COC(=O)c1nn2c(c1C(=O)OC)CC1c3cc4ccc([nH]4)c(-c4ccccc4)c4nc(cc5ccc([nH]5)c(-c5ccccc5)c(n3)C1C2)C=C4 (centres undefined) | Active

System: A-375
Assay: Decrease in intracellular peroxides generation in human A375 cells at 500 nM preincubated for 24 hrs followed by exposure to light with fluence rate of 7.5 mW/cm2 at 10 J and measured after 24 hrs by DCFH2-DA staining-based fluorescence analysis
Assay type: functional, cell-based
Details: not given

Compound | Activity
OCc1nn2c(c1CO)CC1c3nc(cc4ccc([nH]4)c(-c4ccccc4)c4nc(cc5ccc([nH]5)c3-c3ccccc3)C=C4)C1C2 (centres undefined) | Active
COC(=O)c1nn2c(c1C(=O)OC)CC1c3cc4ccc([nH]4)c(-c4ccccc4)c4nc(cc5ccc([nH]5)c(-c5ccccc5)c(n3)C1C2)C=C4 (centres undefined) | Active

System: A-375
Assay: Induction of apoptosis in human A375 cells assessed as decrease in living cells at 500 nM preincubated for 24 hrs followed by exposure to light with fluence rate of 7.5 mW/cm2 at 10 J and measured after 24 hrs by Annexin-V/propidium iodide stainin-based FACS analysis
Assay type: functional
Details: not given

Compound | Activity
OCc1nn2c(c1CO)CC1c3nc(cc4ccc([nH]4)c(-c4ccccc4)c4nc(cc5ccc([nH]5)c3-c3ccccc3)C=C4)C1C2 (centres undefined) | inactive
COC(=O)c1nn2c(c1C(=O)OC)CC1c3cc4ccc([nH]4)c(-c4ccccc4)c4nc(cc5ccc([nH]5)c(-c5ccccc5)c(n3)C1C2)C=C4 (centres undefined) | >50%

System: A-375
Assay: Phototoxicity against human A375 cells assessed as reduction in cell viability up to 500 nM preincubated for 24 hrs followed by exposure to light with fluence rate of 7.5 mW/cm2 at 10 J and measured after 24 hrs in presence of hydroxyl radical scavenger D-mannitol by MTT assay
Assay type: functional, cell-based
Details: not given

Compound | Activity
OCc1nn2c(c1CO)CC1c3nc(cc4ccc([nH]4)c(-c4ccccc4)c4nc(cc5ccc([nH]5)c3-c3ccccc3)C=C4)C1C2 (centres undefined) | Active
COC(=O)c1nn2c(c1C(=O)OC)CC1c3cc4ccc([nH]4)c(-c4ccccc4)c4nc(cc5ccc([nH]5)c(-c5ccccc5)c(n3)C1C2)C=C4 (centres undefined) | Active

System: A-375
Assay: Phototoxicity against human A375 cells assessed as reduction in cell viability up to 500 nM preincubated for 24 hrs followed by exposure to light with fluence rate of 7.5 mW/cm2 at 10 J and measured after 24 hrs in presence of singlet oxygen scavenger sodium azide by MTT assay
Assay type: functional, cell-based
Details: not given

Compound | Activity
OCc1nn2c(c1CO)CC1c3nc(cc4ccc([nH]4)c(-c4ccccc4)c4nc(cc5ccc([nH]5)c3-c3ccccc3)C=C4)C1C2 (centres undefined) | Active
COC(=O)c1nn2c(c1C(=O)OC)CC1c3cc4ccc([nH]4)c(-c4ccccc4)c4nc(cc5ccc([nH]5)c(-c5ccccc5)c(n3)C1C2)C=C4 (centres undefined) | inactive

From ChEMBL document CHEMBL4145517, “Advances on photodynamic therapy of melanoma through novel ring-fused 5,15-diphenylchlorins” (Eur J Med Chem, 2018)
